Data published in patent US10844077B2, “Thiazolyl-containing compounds for treating proliferative diseases” (Dana-Farber Cancer Institute, Inc., priority 2014, dated 2020).
Read-outs that look alike come from different tables or passages of the source.

Tests used:
[1] = molecular target: broad panel of kinases (Homo sapiens, UniProt P42336, H1047Y); format: binding; details: PIK3CA(H1047Y); 1 μM
[2] = molecular target: broad panel of kinases (Homo sapiens, UniProt P41240); format: binding; details: CSK; 1 μM
Sequence of broad panel of kinases (Homo sapiens, UniProt P41240) (P41240 2-450 limits assumed): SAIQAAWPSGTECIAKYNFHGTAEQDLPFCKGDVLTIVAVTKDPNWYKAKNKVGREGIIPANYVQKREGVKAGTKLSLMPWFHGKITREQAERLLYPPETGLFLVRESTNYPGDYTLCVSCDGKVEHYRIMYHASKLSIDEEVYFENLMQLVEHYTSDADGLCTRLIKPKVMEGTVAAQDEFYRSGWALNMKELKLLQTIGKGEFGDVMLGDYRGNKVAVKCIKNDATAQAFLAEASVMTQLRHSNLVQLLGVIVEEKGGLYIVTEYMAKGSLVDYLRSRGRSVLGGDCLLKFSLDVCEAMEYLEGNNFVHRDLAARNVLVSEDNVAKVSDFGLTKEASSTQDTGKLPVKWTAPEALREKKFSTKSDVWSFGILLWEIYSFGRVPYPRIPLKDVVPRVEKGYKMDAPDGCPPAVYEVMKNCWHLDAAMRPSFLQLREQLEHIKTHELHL

[3] = molecular target: broad panel of kinases (Homo sapiens, UniProt P41743); format: binding; details: PRKCI; 1 μM
Sequence of broad panel of kinases (Homo sapiens, UniProt P41743) (P41743 2-596 limits assumed): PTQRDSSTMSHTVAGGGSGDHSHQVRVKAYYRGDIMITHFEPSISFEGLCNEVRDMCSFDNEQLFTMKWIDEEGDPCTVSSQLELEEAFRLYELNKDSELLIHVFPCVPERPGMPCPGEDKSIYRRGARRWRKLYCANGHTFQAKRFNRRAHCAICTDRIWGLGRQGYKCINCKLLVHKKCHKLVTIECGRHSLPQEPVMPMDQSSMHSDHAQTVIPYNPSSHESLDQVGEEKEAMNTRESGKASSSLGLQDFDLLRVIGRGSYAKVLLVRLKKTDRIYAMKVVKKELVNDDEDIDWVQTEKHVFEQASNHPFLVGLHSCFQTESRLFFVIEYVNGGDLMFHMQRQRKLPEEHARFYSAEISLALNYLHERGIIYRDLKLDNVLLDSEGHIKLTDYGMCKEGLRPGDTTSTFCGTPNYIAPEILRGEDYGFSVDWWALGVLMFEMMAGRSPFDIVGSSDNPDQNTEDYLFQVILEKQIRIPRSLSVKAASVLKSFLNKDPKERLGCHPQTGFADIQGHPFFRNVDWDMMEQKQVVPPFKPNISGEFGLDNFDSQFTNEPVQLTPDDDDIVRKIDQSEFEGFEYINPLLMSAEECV

[4] = molecular target: broad panel of kinases (Homo sapiens, UniProt P15056); format: binding; details: BRAF; 1 μM
Sequence of broad panel of kinases (Homo sapiens, UniProt P15056) (P15056 2-766 limits assumed): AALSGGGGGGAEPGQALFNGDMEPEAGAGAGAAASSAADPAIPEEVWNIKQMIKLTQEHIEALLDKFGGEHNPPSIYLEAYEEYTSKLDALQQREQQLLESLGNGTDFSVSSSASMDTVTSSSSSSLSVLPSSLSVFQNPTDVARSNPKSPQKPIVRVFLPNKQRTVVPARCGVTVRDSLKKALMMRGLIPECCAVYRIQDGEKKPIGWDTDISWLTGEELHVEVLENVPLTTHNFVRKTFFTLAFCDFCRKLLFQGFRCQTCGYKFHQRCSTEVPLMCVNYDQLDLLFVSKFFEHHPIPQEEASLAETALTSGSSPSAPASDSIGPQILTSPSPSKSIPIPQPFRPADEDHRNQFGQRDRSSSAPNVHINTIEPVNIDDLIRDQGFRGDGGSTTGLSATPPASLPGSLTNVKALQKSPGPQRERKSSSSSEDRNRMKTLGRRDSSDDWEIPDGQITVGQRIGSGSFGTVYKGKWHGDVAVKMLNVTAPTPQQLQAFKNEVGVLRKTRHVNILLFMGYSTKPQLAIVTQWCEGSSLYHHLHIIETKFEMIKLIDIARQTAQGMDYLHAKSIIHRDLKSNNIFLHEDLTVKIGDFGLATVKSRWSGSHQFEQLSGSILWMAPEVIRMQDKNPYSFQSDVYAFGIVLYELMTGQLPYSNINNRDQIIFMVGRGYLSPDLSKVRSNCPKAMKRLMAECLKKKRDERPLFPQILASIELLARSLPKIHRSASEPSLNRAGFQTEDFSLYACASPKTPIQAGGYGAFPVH

[5] = molecular target: broad panel of kinases (Homo sapiens, UniProt P51812); format: binding; details: 1 μM
[6] = molecular target: broad panel of kinases (Homo sapiens, UniProt P54756); format: binding; details: EPHA5; 1 μM
Sequence of broad panel of kinases (Homo sapiens, UniProt P54756) (P54756 25-1037 limits assumed): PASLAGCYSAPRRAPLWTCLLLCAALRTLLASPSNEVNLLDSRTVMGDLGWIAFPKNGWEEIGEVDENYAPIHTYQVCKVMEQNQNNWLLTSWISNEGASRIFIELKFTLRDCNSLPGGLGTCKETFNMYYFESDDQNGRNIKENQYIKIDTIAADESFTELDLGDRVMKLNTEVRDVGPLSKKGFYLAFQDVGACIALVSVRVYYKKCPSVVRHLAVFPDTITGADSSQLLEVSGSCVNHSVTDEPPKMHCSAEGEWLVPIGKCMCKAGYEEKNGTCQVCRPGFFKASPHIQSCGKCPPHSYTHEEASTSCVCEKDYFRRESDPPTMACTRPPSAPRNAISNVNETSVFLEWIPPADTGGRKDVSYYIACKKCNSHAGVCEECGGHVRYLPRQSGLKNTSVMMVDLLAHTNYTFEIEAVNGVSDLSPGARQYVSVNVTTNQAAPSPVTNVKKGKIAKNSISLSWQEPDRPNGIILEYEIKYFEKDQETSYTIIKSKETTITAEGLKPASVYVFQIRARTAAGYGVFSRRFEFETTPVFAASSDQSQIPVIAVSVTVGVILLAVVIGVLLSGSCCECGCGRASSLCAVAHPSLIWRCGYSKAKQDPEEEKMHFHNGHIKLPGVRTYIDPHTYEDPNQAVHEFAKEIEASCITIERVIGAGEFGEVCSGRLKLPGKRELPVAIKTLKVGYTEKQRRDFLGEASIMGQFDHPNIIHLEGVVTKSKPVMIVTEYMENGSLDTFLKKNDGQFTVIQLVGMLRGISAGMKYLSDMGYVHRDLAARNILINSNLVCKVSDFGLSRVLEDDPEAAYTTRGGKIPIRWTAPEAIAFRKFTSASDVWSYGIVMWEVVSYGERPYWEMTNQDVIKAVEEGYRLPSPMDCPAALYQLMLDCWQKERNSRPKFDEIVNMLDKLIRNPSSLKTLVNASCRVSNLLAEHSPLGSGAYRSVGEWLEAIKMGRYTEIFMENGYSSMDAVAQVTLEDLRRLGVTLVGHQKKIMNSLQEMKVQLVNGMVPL

[7] = molecular target: broad panel of kinases (Homo sapiens, UniProt Q9Y6E0); format: binding; details: MST3; 1 μM
[8] = molecular target: broad panel of kinases (Homo sapiens, UniProt P27037); format: binding; details: ACVR2A; 1 μM
Sequence of broad panel of kinases (Homo sapiens, UniProt P27037) (P27037 20-513 limits assumed): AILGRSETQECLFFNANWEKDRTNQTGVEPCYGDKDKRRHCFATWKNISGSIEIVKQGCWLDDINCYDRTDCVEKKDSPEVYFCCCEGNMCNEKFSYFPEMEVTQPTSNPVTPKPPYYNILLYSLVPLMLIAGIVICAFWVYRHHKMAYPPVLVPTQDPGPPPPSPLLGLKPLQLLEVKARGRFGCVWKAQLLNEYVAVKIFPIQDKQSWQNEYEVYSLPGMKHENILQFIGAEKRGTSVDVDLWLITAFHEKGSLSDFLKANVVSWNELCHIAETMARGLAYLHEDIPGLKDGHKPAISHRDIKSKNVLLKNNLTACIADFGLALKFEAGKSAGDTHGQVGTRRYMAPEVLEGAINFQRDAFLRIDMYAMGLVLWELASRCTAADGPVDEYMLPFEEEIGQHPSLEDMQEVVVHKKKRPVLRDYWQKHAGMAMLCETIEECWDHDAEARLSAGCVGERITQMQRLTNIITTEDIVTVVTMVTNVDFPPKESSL

[9] = molecular target: broad panel of kinases (Homo sapiens, UniProt Q96Q40); format: binding
[10] = molecular target: broad panel of kinases (Homo sapiens, UniProt Q14164); format: binding; details: IKK-epsilon; 1 μM
[11] = molecular target: kinases in BCWM.1 cells (Homo sapiens, UniProt P15735); assay: KINATIV assay of compounds I-3 and I-9, lysate directly labeled with ATP-biotin probe (no GF); format: cell-based; details: PHKg2; Lys1; 1 μM, 90 min; no GF
Description: (§1) The cells were harvested and lysed. […] Bound kinases were identified and quantitated by ACTIVX as described in Patricelli et al., Biochemistry, 2007, 46(2): 350-358. The compounds were tested in duplicates against duplicate or quadruplicate control samples.

[12] = molecular target: kinases in BCWM.1 cells (Homo sapiens, UniProt Q96Q15); assay: as above; format: cell-based; details: SMG1; ATP; 1 μM, 90 min; no GF
Description: as §1

[13] = molecular target: kinases in BCWM.1 cells (Homo sapiens, UniProt Q96S38); assay: as above; format: cell-based; details: RSKL1; ATP; 1 μM, 90 min; no GF
Description: as §1

[14] = molecular target: kinases in BCWM.1 cells (Homo sapiens, UniProt P48426); assay: as above; format: cell-based; details: PIP4K2A; ATP; 1 μM, 90 min; no GF
Sequence of kinases in BCWM.1 cells (Homo sapiens, UniProt P48426) (P48426 2-406 limits assumed): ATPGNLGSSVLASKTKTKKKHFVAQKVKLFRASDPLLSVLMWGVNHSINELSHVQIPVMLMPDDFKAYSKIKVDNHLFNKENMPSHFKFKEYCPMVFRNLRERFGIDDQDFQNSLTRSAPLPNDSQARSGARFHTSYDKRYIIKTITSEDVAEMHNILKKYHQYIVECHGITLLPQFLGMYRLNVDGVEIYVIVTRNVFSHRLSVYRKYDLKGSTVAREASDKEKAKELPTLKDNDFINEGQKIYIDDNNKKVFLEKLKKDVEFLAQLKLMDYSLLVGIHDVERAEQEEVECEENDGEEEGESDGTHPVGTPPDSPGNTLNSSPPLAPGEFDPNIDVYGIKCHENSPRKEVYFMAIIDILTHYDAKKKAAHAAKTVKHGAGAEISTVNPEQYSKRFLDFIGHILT
Description: as §1

[15] = molecular target: kinases in BCWM.1 cells (Homo sapiens, UniProt O43318); assay: as above; format: cell-based; details: TAK1; Lys2; 1 μM, 90 min; no GF
Description: as §1

[16] = molecular target: kinases in BCWM.1 cells (Homo sapiens, UniProt P42338); assay: as above; format: cell-based; details: PIK3CB; ATP; 1 μM, 90 min; no GF
Description: as §1

[17] = molecular target: kinases in BCWM.1 cells (Homo sapiens, UniProt Q8TDX7); assay: as above; format: cell-based; details: NEK7; Lys1; 1 μM, 90 min; no GF
Description: as §1

[18] = molecular target: kinases in BCWM.1 cells (Homo sapiens, UniProt Q86SG6); assay: as above; format: cell-based; details: NEK8; Lys2; 1 μM, 90 min; no GF
Description: as §1

[19] = molecular target: kinases in BCWM.1 cells (Homo sapiens, UniProt Q96SB4); assay: as above; format: cell-based; details: SRPK1; Lys2; 1 μM, 90 min; no GF
Description: as §1

[20] = molecular target: kinases in BCWM.1 cells (Homo sapiens, UniProt P12931); assay: as above; format: cell-based; details: SRC; Lys1; 1 μM, 90 min; no GF
Sequence of kinases in BCWM.1 cells (Homo sapiens, UniProt P12931) (P12931 2-536 limits assumed): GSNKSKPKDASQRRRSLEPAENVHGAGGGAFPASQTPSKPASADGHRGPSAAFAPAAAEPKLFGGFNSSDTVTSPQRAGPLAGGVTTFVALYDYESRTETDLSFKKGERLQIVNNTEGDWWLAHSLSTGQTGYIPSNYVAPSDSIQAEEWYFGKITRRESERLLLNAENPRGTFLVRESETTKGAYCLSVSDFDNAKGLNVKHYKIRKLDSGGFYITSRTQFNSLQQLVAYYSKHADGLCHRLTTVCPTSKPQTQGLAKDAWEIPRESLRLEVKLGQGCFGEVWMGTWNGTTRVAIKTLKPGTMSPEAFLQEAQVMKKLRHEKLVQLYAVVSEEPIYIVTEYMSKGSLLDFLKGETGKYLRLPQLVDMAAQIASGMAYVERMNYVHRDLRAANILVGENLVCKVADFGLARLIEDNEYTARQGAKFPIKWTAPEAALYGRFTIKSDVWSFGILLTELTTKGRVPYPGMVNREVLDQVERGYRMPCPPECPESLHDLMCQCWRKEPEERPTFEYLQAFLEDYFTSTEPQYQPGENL
Description: as §1

[21] = molecular target: kinases in BCWM.1 cells (Homo sapiens, UniProt O95747); assay: as above; format: cell-based; details: OSR1; Lys2; 1 μM, 90 min; no GF
Sequence of kinases in BCWM.1 cells (Homo sapiens, UniProt O95747) (O95747 2-527 limits assumed): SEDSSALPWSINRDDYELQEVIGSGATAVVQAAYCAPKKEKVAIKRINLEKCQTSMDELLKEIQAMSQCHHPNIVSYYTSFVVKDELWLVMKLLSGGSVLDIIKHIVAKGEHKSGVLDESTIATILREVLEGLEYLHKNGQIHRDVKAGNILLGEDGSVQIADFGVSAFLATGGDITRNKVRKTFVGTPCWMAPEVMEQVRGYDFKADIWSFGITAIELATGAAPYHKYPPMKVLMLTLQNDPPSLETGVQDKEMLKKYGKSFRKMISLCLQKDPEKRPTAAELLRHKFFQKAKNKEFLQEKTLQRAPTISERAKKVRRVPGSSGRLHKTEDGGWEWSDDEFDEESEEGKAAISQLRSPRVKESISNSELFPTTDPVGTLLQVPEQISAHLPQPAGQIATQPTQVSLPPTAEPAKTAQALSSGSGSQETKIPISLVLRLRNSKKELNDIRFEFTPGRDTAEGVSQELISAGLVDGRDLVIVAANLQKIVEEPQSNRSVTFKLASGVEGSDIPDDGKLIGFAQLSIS
Description: as §1

[22] = molecular target: kinases in BCWM.1 cells (Homo sapiens, UniProt P29597); assay: as above; format: cell-based; details: TYK2 domain2; Activation Loop; 1 μM, 90 min; no GF
Description: as §1

[23] = molecular target: kinases in BCWM.1 cells (Homo sapiens, UniProt Q15349); assay: as above; format: cell-based; details: RSK3 domain1; Lys2; 1 μM, 90 min; no GF
Description: as §1

[24] = molecular target: kinases in BCWM.1 cells (Homo sapiens, UniProt P51955); assay: as above; format: cell-based; details: NEK2; Lys2; 1 μM, 90 min; no GF
Description: as §1

[25] = molecular target: kinases in BCWM.1 cells (Homo sapiens, UniProt Q15418); assay: as above; format: cell-based; details: Lys2, 1 μM, 90 min, no GF
Description: as §1

[26] = molecular target: kinases in BCWM.1 cells (Homo sapiens, UniProt Q9Y572); assay: as above; format: cell-based; details: RIPK3; Lys2; 1 μM, 90 min; no GF
Description: as §1

[27] = molecular target: kinases in BCWM.1 cells (Homo sapiens, UniProt Q9UBE8); assay: as above; format: cell-based; details: NLK; Lys2; 1 μM, 90 min; no GF
Description: as §1

[28] = molecular target: kinases in BCWM.1 cells (Homo sapiens, UniProt Q14289); assay: as above; format: cell-based; details: PYK2; Activation Loop; 1 μM, 90 min; no GF
Description: as §1

[29] = molecular target: kinases in BCWM.1 cells (Homo sapiens, UniProt O94921); assay: as above; format: cell-based
Description: as §1

[30] = molecular target: kinases in BCWM.1 cells (Homo sapiens, UniProt Q9UKE5); assay: as above; format: cell-based; details: ZC2/TNIK; Lys1; 1 μM, 90 min; no GF
Description: as §1

Structure (SMILES) | percent of control binding remaining (lower = stronger binding) [1] [%] | percent of control binding remaining (lower = stronger binding) [2] [%] | percent of control binding remaining (lower = stronger binding) [3] [%] | percent of control binding remaining (lower = stronger binding) [4] [%] | percent of control binding remaining (lower = stronger binding) ([5]; RSK2(Kin.Dom.1-N-terminal)) [%] | percent of control binding remaining (lower = stronger binding) ([5]; RSK2(Kin.Dom.2-C-terminal)) [%] | percent of control binding remaining (lower = stronger binding) [6] [%] | percent of control binding remaining (lower = stronger binding) [7] [%] | percent of control binding remaining (lower = stronger binding) [8] [%] | % change compared to control [9] [%] | percent of control binding remaining (lower = stronger binding) [10] [%] | % change of MS signal compared to control sample [11] [%] | % change of MS signal compared to control sample [12] [%] | % change of MS signal compared to control sample [13] [%] | % change of MS signal compared to control sample [14] [%] | % change of MS signal compared to control sample [15] [%] | % change of MS signal compared to control sample [16] [%] | % change of MS signal compared to control sample [17] [%] | % change of MS signal compared to control sample [18] [%] | % change of MS signal compared to control sample [19] [%] | also measured
C=CC(=O)N1CC[C@H](Nc2nccc(Nc3ncc(C(=O)Nc4c(C)cccc4C)s3)n2)C1 [Example I-3] | 96 | 1.6 | 90 | 6.8 | 97 | 100 | 0.85 | 100 | 82 | 95 | 100 | −31.2 | 0.6 | −17 | −4.9 | 2.3 | −9.1 | 5.7 | 5.1 | −7.8 | % change of MS signal compared to control sample [20]: 91.7%; % change of MS signal compared to control sample [21]: 13.8%; % change of MS signal compared to control sample [22]: −10.1%; % change of MS signal compared to control sample [23]: 7.6%; % change of MS signal compared to control sample [24]: 20.5%; % change of MS signal compared to control sample ([25]; RSK1 domain1): 9%; % change of MS signal compared to control sample ([25]; RSK1 domain2): −1.9%; % change of MS signal compared to control sample [26]: 13.4%; % change of MS signal compared to control sample [27]: 66.2%; % change of MS signal compared to control sample [28]: 1%; % change of MS signal compared to control sample [29]: 0.9%; % change of MS signal compared to control sample [30]: −15.6%
C=CC(=O)N1CC[C@H](Nc2nc(CN3CCOCC3)cc(Nc3ncc(C(=O)Nc4c(C)cccc4C)s3)n2)C1 [Example I-2] | 100 | 1.6 | 94 | 4.4 | 95 | 100 | 0.95 | 100 | 76 | 100 | 100 |  |  |  |  |  |  |  |  |  | 
CCC(=O)N1CC[C@H](Nc2nccc(Nc3ncc(C(=O)Nc4c(C)cccc4C)s3)n2)C1 [Example I-9] |  |  |  |  |  |  |  |  |  |  |  | 12.5 | −11.6 | 13.5 | −10.5 | −1.4 | 33.6 | 11.3 | −14.1 | −4 | % change of MS signal compared to control sample [20]: 78.6%; % change of MS signal compared to control sample [21]: 2.7%; % change of MS signal compared to control sample [22]: −17.7%; % change of MS signal compared to control sample [23]: −1.4%; % change of MS signal compared to control sample [24]: −8.2%; % change of MS signal compared to control sample ([25]; RSK1 domain1): −2%; % change of MS signal compared to control sample ([25]; RSK1 domain2): −9.7%; % change of MS signal compared to control sample [26]: −15%; % change of MS signal compared to control sample [27]: −1.2%; % change of MS signal compared to control sample [28]: 5.1%; % change of MS signal compared to control sample [29]: −3.9%; % change of MS signal compared to control sample [30]: 23.4%
